Assay results from patent US9359409B2, “Antimicrobial peptides, compositions comprising the same and uses thereof” (priority 2012, dated 2016).
Where two headings read alike, the source gives them in different places. Ends that are not written are not given here.

Assays:
Escherichia coli = tested on: Escherichia coli
Experimental: (§1) The 5 designed and synthesized peptides of the invention, plus omiganan (peptide of the state of the art) were evaluated for their antimicrobial capacity in microdilution assays for determining the minimum inhibitory concentration (MIC). A first panel of 8 representative strains was analyzed in these assays, encompassing Gram positive and Gram negative bacteria. […] The lowest MIC values indicate a higher antimicrobial potency.
(§2) Subsequently, an analysis of a panel of clinical isolates including strains with different resistance mechanisms against conventional antibiotics was carried out, all of which are of clinical relevance. […] In Table 3 the results for a panel of Gram negative bacteria are shown, and in Table 4 for a panel of […] bacteria. In these tables the detected gene/s responsible for the resistance against antibiotics for each strain, are included.
(§3) Antimicrobial activity was analyzed by means of the determination of the MIC (minimum inhibitory concentration) by the microdilution technique. The technique was carried out in the standard fashion according to (CLSI M07-A9 Vol. 32 No 2. January 2012). The peptide concentration range used was from 0.5 μg/mL to 512 μg/mL in two-fold serial dilutions. The used medium was MH Difco broth supplemented with cations, at a final concentration of Ca^++20-25 mg/L and Mg^++10-12.5 mg/L. The working inoculum used corresponds to a 1/100 dilution of a bacterial suspension equivalent to 0.5 in the Mc Farland scale.

Klebsiella pneumoniae = tested on: Klebsiella pneumoniae
Experimental: as §1, §2, §3

Staphylococcus cohnii = tested on: Staphylococcus cohnii
Experimental: as §1, §2, §3

Staphylococcus warneri = tested on: Staphylococcus warneri
Experimental: as §1, §2, §3

Pseudomonas aeruginosa = assay: MIC by broth microdilution; format: cell-based
Experimental: as §1, §2, §3

E. coli = format: cell-based
Experimental: (§4) In vitro sensitivity assay of aerobically growing bacteria, using the disc diffusion method was performed according to the standards in the M2 document of the CLSI (Clinical and Laboratory Standards Institute: Performance Standards for Antimicrobial Disk Susceptibility Tests.) using the non-amidated peptides
(§5) In brief, intermediate solutions (10×) of the antimicrobial non-amidated peptides were prepared by serial dilutions 1:2, 1:4 and 1:8 by two-fold dilutions. Then, one part of the solution of the antimicrobial peptide 10× was added to nine parts of melted bacteriological agar. The antibiotic solution was added for each dilution, in the melted agar and cooled to 45-50° C. in a water bath. Then, the agar-antibiotic mixture was placed in a Petri dish until a 3-4 mm depth was reached. The inoculum is prepared with a turbidity of 0.5 in the McFarland scale (approximately 1-2 10^8 CFU/ml). The final inoculum required for the agar dilution test is 10^4 colony forming units (CFU) per “spot” having 5-8 mm in diameter. The inoculated plates must be incubated upside down at 35° C. for a period of 16-20 hs. MIC was recorded as the value of the lower dilution completely inhibiting bacterial development, without considering the development of a single colony or a slight film caused by the inoculum deposit. The final point in these cases will correspond to the concentration at which there is more than 80% reduction in growth as compared with the control.

K. pneumoniae = format: cell-based
Experimental: as §4, §5

P. aeruginosa = format: cell-based
Experimental: as §4, §5

S. aureus = format: cell-based
Experimental: as §4, §5

S. cohnii = format: cell-based
Experimental: as §4, §5

S. warnerii = format: cell-based
Experimental: as §4, §5

Staphylococcus aureus = assay: MIC by broth microdilution; format: cell-based
Experimental: as §1, §2, §3

A. baumanii = tested on: A. baumanii
Experimental: as §2, §3

E. faecalis = tested on: E. faecalis
Experimental: as §2, §3

E. gallinarum = tested on: E. gallinarum
Experimental: as §2, §3

S. haemolyticus = tested on: S. haemolyticus
Experimental: as §2, §3

S. saprophyticus = tested on: S. saprophyticus
Experimental: as §2, §3

human erythrocytes = assay: Erythrocyte hemolysis assay (cytotoxicity); format: cell-based
Experimental: Subsequently, the capacity of the peptides of the invention for lysing human erythrocytes was evaluated, as a measure of their cytotoxicity (Table 2). The assays were carried out according to the Examples and are expressed as a percentage of total lysis obtained with either water or the surfactant Tween 20. In this assays, the lower hemolysis percentage, the lower expected cytotoxic activity.
Evaluation of cytotoxic activity was performed by means of an erythrocyte hemolysis assay (according to Pure Appl. Chem., Vol. 79, No. 4, pp. 717-728, 2007). In brief, from a volume of heparinized human whole blood, 3 times that volume of PBS is added and centrifuged 10 minutes at 1500 rpm, repeating the washing two more times. 10% blood solutions in PBS were prepared with that pellet. Subsequently, each group was added the corresponding peptide at the indicated concentration and incubated at 37° C. for 30 minutes. […]

FGKEKKAWWRRRKWLK-NH2 [peptide 3, FGKEKKAWWRRRKWLK]
8 µg/mL: MIC (Staphylococcus warneri)
4 µg/mL: MIC (Staphylococcus cohnii)
32 µg/mL: MIC in agar dilution (S. cohnii) | MIC in agar dilution (S. warnerii)
64 µg/mL: MIC (Escherichia coli)
>128 µg/mL: MIC in agar dilution (E. coli) | MIC in agar dilution (K. pneumoniae) | MIC in agar dilution (P. aeruginosa) | MIC in agar dilution (S. aureus)
128 µg/mL: MIC (Klebsiella pneumoniae) | MIC (Pseudomonas aeruginosa)

WPKWWKWKRRWGRKKAKKRRG-NH2 [peptide 1]
3.4%: Hemolysis % (water) (human erythrocytes; peptide 128 ug/ml, percentage of total lysis obtained with water)
highest therapeutic index values: therapeutic index (antimicrobial potency over the cytotoxicity percentage) (human erythrocytes; in words)
0.067: OD 540 nm (human erythrocytes; peptide 128 ug/ml, supernatant of human erythrocytes, 37° C., 30 minutes)
16 µg/mL: MIC (Staphylococcus aureus; S. aureus M6276, resistance gene ermA + lnuA) | MIC (E. gallinarum; E. gallinarum M2685, resistance gene vanC1 + vanA) | MIC (S. haemolyticus) | MIC (S. saprophyticus) | MIC in agar dilution (S. cohnii) | MIC in agar dilution (S. warnerii)
128 µg/mL: MIC (Escherichia coli; E. coli ABC11, resistance gene ctx-m-2) | MIC (Escherichia coli; E. coli Cos15, resistance gene per + tem) | MIC (Escherichia coli; E. coli LCA1, resistance gene ctx-m-2 + tem-1) | MIC (Escherichia coli; E. coli M5306, resistance gene ctx-m-2 + tem-1 + per-2) | MIC (Escherichia coli; E. coli M7859, resistance gene cit) | MIC (Escherichia coli; E. coli M9209, resistance gene kpc) | MIC (Escherichia coli; E. coli NEU23, resistance gene oxa-GIII + tem) | MIC (Pseudomonas aeruginosa; P. aeruginosa M5109, resistance gene vim) | MIC (Pseudomonas aeruginosa; P. aeruginosa M5470, resistance gene ND) | MIC (Pseudomonas aeruginosa; P. aeruginosa M7728, resistance gene imp) | MIC (Pseudomonas aeruginosa; P. aeruginosa M7907, resistance gene per) | MIC (E. faecalis; E. faecalis M4449, resistance gene vanA) | MIC (E. faecalis; E. faecalis M4992, resistance gene vanA) | MIC (E. faecalis; E. faecalis M6383, resistance gene vanA) | MIC (E. faecalis; E. faecalis M6534, resistance gene vanB)
32 µg/mL: MIC (Staphylococcus aureus; S. aureus 28, resistance gene ermA) | MIC (Staphylococcus aureus; S. aureus 33, resistance gene msrA) | MIC (Staphylococcus aureus; S. aureus 239, resistance gene ermC) | MIC (Staphylococcus aureus; S. aureus ATCC29213, WT) | MIC (Staphylococcus aureus; S. aureus M2832, resistance gene mecA) | MIC (Staphylococcus aureus; S. aureus M4046, resistance gene mecA) | MIC (Staphylococcus aureus; S. aureus M6784, resistance gene mecA) | MIC (E. gallinarum; E. gallinarum M2723, resistance gene vanC1 + vanA)
256 µg/mL: MIC (E. faecalis; E. faecalis ATCC 51299, resistance gene vanB) | MIC (E. faecalis; E. faecalis M4899, resistance gene vanB)
64 µg/mL: MIC (Pseudomonas aeruginosa; P. aeruginosa M7525, resistance gene spm) | MIC (Pseudomonas aeruginosa; P. aeruginosa M7712, resistance gene spm) | MIC (Pseudomonas aeruginosa; P. aeruginosa M7723, resistance gene kpc) | MIC (Staphylococcus aureus; S. aureus 204, resistance gene ermA) | MIC (A. baumanii; A. baumanii FAV-1, resistance gene per + oxa-51 + oxa-58) | MIC (A. baumanii; A. baumanii M5179, resistance gene oxa-51) | MIC (A. baumanii; A. baumanii M5277, resistance gene per) | MIC (A. baumanii; A. baumanii M5282, resistance gene oxa-51) | MIC (A. baumanii; A. baumanii M7489, resistance gene oxa-51 + tem) | MIC (A. baumanii; A. baumanii M7978, resistance gene imp) | MIC (A. baumanii; A. baumanii M13523, resistance gene oxa-51) | MIC (E. faecalis)
4%: Hemolysis % (1% Tween20) (human erythrocytes; peptide 128 ug/ml, percentage of total lysis obtained with 1% Tween20)
>128 µg/mL: MIC in agar dilution (E. coli; non-amidated peptides, E. coli ATCC 25922, WT) | MIC in agar dilution (K. pneumoniae; non-amidated peptides, K. pneumoniae M13540, KPC) | MIC in agar dilution (P. aeruginosa) | MIC in agar dilution (P. aeruginosa; non-amidated peptides, P. aeruginosa M13513, KPC) | MIC in agar dilution (S. aureus; non-amidated peptides, S. aureus ATCC29213, MSSA) | MIC in agar dilution (S. aureus; non-amidated peptides, S. aureus M6794, MRSA)
